Experimental data from patent publication US6500840B2, “Quinuclidine-substituted heteroaryl moieties for treatment of disease” (Pharmacia & Upjohn Company, priority 2000, dated 2002).
“And” between values parts separate entries of the source, which are not always exact repeats. Equal values may be shown once. Where a name gives a salt, the structure may show the parent alone. Read-outs that look alike come from different tables or passages of the source.

Biological target: α7 nAChR (Rattus norvegicus, UniProt Q05941)
Assay: [3H]-MLA competition binding assay, rat brain membranes
[1] = Ki, inhibition of [3H]-MLA binding (3.0 to 4.0 nM), Sprague-Dawley rat whole brain minus cerebellum homogenate, 1 hour at 25° C

α7 nAChR, sequence (Q05941 23-502): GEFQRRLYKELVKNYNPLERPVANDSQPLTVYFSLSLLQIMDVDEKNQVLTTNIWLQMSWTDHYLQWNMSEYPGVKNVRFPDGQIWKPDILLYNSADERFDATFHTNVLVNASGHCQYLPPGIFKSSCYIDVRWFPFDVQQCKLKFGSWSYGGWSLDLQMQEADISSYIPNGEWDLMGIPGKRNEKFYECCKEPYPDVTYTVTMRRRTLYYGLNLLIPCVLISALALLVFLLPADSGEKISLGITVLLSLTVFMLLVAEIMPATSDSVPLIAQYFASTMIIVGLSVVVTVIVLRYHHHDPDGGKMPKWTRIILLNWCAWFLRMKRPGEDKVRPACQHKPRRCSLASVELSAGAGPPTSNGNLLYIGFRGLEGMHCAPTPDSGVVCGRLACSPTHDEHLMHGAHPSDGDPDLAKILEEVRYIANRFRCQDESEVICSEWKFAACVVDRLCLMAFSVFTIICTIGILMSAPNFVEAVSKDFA
Protocol: Membrane Preparation. Male Sprague-Dawley rats (300-350 g) are sacrificed by decapitation and the brains (whole brain minus cerebellum) are dissected quickly, weighed and homogenized in 9 volumes/g wet weight of ice-cold 0.32 M sucrose using a rotating pestle on setting 50 (10 up and down strokes). The homogenate is centrifuged at 1,000×g for 10 minutes at 4° C. The supernatant is collected and centrifuged at 20,000×g for 20 minutes at 4° C. The resulting pellet is resuspended to a protein concentration of 1-8 mg/mL. Aliquots of 5 mL homogenate are frozen at −80° C. until needed for the assay.
Binding Assay. […] Filters are pre-soaked in 50 mm Tris HCl pH 7.0-0.05% polyethylenimine. The filters are rapidly washed two times with 5 mL aliquots of cold 0.9% saline and then counted for radioactivity by liquid
Data Analysis. […] Hill coefficients were obtained using non-linear regression (GraphPad Prism sigmoidal dose-response with variable slope).

Row | Structure (SMILES) | Ki [1] | Ki [nM]
1 | O=C(N[C@H]1CN2CCC1CC2)c1ccc(Oc2ccccc2)o1 [Example 151, N-[(3R)-1-Azabicyclo[2.2.2]oct-3-yl]-5-phenoxy-furan-2-carboxamide 4-Methylbenzenesulfonate] | 225 to 835 nM | 
2 | O=C(N[C@H]1CN2CCC1CC2)c1ccc(-c2cc3ccccc3s2)o1 [Example 141, N-[(3R)-1-azabicyclo[2.2.2]oct-3-yl]-5-(1-benzothien-2-yl)-furan-2-carboxamide 4-methylbenzenesulfonate] | 260 to 275 nM | 
3 | O=C(N[C@H]1CN2CCC1CC2)c1cnc(-c2cccc(F)c2)s1 [Example 53, N-[(3R)-1-azabicyclo[2.2.2]oct-3-yl]-2-(3-fluorophenyl)-1,3-thiazole-5-carboxamide 4-methylbenzenesulfonate] | 1900 to 1970 nM | 
4 | O=C(N[C@H]1CN2CCC1CC2)c1ccc(-c2ccc([N+](=O)[O-])cc2)o1 [Example 112, N-[(3R)-1-azabicyclo[2.2.2]oct-3-yl]-5-(4-nitrophenyl)-furan-2-carboxamide 4-methylbenzenesulfonate] | 5 to 24 nM | 
5 | Cc1ccc(-c2ccc(C(=O)N[C@H]3CN4CCC3CC4)s2)s1 [Example 14, N-[(3R)-1-Azabicyclo[2.2.2]oct-3-yl]-5′-methyl-2,2′-bithiophene-5-carboxamide Hydrochloride] | 12 to 16 nM | 
6 | O=C(N[C@H]1CN2CCC1CC2)c1ccc(-c2ccc(Cl)cc2)o1 [Example 106, N-[(3R)-1-azabicyclo[2.2.2]oct-3-yl]-5-(4-chlorophenyl)-furan-2-carboxamide fumarate] | 15 to 190 nM and 22 to 110 nM | 
7 | O=C(N[C@H]1CN2CCC1CC2)c1ccc(-c2cccc(F)c2)o1 [Example 114, N-[(3R)-1-azabicyclo[2.2.2]oct-3-yl]-5-(3-fluorophenyl)-furan-2-carboxamide 4-methylbenzenesulfonate] | 135 nM | 
8 | O=C(N[C@H]1CN2CCC1CC2)c1ccc(-c2ccccc2[N+](=O)[O-])s1 [Example 6, N-[(3R) 1-azabicyclo[2.2.2]oct-3-yl]-5-(2-nitrophenyl)-thiophene-2-carboxamide hydrochloride] | 5 to 10 nM | 
9 | Nc1ccccc1-c1ccc(C(=O)N[C@H]2CN3CCC2CC3)s1 [Example 12, 5-(2-Aminophenyl)-N-[(3R)-1-azabicyclo[2.2.2]oct-3-yl]-thiophene-2-carboxamide] | 45 to 75 nM | 
10 | O=C(N[C@H]1CN2CCC1CC2)c1ccc(-c2cccc(OCc3ccccc3)c2)s1 [Example 9, N-[(3R)-1-azabicyclo[2.2.2]oct-3-yl]-5-(3-benzyloxyphenyl)-thiophene-2-carboxamide hydrochloride] | 540 to 570 nM | 
11 | O=C(N[C@H]1CN2CCC1CC2)c1ccc(-c2ccc(O)c(F)c2)s1 [Example 43, N-[(3R)-1-Azabicyclo[2.2.2]oct-3-yl]-5-(3-fluoro-4-hydroxyphenyl)-thiophene-2-carboxamide Hydrochloride] | 3 to 5 nM | 
12 | N#Cc1ccc(C(=O)N[C@H]2CN3CCC2CC3)s1 [Example 18, N-[(3R)-1-Azabicyclo[2.2.2]oct-3-yl]-5-cyano-thiophene-2-carboxamide Hydrochloride] | 240 to 290 nM | 
13 | Cc1ccccc1-c1ccc(C(=O)N[C@H]2CN3CCC2CC3)o1 [Example 135, N-[(3R)-1-azabicyclo[2.2.2]oct-3-yl]-5-(2-methylphenyl)-furan-2-carboxamide 4-methylbenzenesulfonate] | 16 to 45 nM | 
14 | O=C(N[C@H]1CN2CCC1CC2)c1ccc(-c2cc3ccccc3o2)o1 [Example 146, N-[(3R)-1-azabicyclo[2.2.2]oct-3-yl]-5-(1-benzofuran-2-yl)-furan-2-carboxamide 4-methylbenzenesulfonate] | 35 to 140 nM | 
15 | O=C(N[C@H]1CN2CCC1CC2)c1ccc(-c2ccccc2Cl)o1 [Example 104, N-((3R)-1-azabicyclo[2.2.2]oct-3-yl]-5-(2-chlorophenyl)-furan-2-carboxamide toluene sulfonate] | 20 to 130 nM and 75 nM | 
16 | O=C(N[C@H]1CN2CCC1CC2)c1cnc(-c2ccccc2)o1 [Example 155, N-[(3R)-1-azabicyclo[2.2.2]oct-3-yl]-2-phenyl-1,3-oxazole-5-carboxamide 4-methylbenzenesulfonate] | 1380 nM | 
17 | O=C(N[C@H]1CN2CCC1CC2)c1ccc(-c2ccccc2C(F)(F)F)o1 [Example 108, N-[(3R)-1-azabicyclo[2.2.2]oct-3-yl]-5-[2-(trifluoromethyl)-phenyl]-furan-2-carboxamide fumarate] | 415 to 560 nM | 
18 | Cc1ccc(-c2ccc(C(=O)N[C@H]3CN4CCC3CC4)o2)c([N+](=O)[O-])c1 [Example 130, N-[(3R)-1-azabicyclo[2.2.2]oct-3-yl]-5-(4-methyl-2-nitrophenyl)-furan-2-carboxamide hydrochloride] | 420 to 565 nM and 330 to 410 nM | 
19 | O=C(N[C@H]1CN2CCC1CC2)c1ccc(-c2ccccc2F)o1 [Example 113, N-[(3R)-1-azabicyclo[2.2.2]oct-3-yl]-5-(2-fluorophenyl)-furan-2-carboxamide 4-methylbenzenesulfonate] | 90 to 125 nM | 

Row | Structure (SMILES) | Ki [1] | Ki [nM]
20 | O=C(N[C@H]1CN2CCC1CC2)c1ncc(-c2ccc(Br)cc2)o1 [Example 88, N-[(3R)-1-azabicyclo[2.2.2]oct-3-yl]-5-(4-bromophenyl)-1,3-oxazole-2-carboxamide 4-methylbenzenesulfonate] | 65 to 80 nM | 
21 | Cc1nc(C(=O)N[C@H]2CN3CCC2CC3)sc1-c1ccccc1 [Example 89, N-[(3R)-1-Azabicyclo[2.2.2]oct-3-yl]-4-methyl-5-phenyl-1,3-thiazole-2-carboxamide 4-Methylbenzenesulfonate] | 310 to 400 nM | 
22 | O=C(N[C@H]1CN2CCC1CC2)c1ncc(-c2ccccc2[N+](=O)[O-])o1 [Example 83, N-[(3R)-1-azabicyclo[2.2.2]oct-3-yl]-5-(2-nitrophenyl)-1,3-oxazole-2-carboxamide 4-methylbenzenesulfonate] | 2 to 3 nM | 
23 | Nc1ccccc1-c1ccc(C(=O)N[C@H]2CN3CCC2CC3)o1 [Example 147, 5-(2-Aminophenyl)-N-[(3R)-1-azabicyclo[2.2.2]oct-3-yl]-furan-2-carboxamide bis(4-Methylbenzenesulfonate)] | 2 to 3 nM | 
24 | O=C(N[C@H]1CN2CCC1CC2)c1ccc(-c2ccccc2OC(F)(F)F)o1 [Example 138, N-[(3R)-1-azabicyclo[2.2.2]oct-3-yl]-5-[2-(trifluoromethoxy)phenyl]-furan-2-carboxamide 4-methylbenzenesulfonate] | 525 to 590 nM | 
25 | COc1ccccc1-c1ccc(C(=O)N[C@H]2CN3CCC2CC3)o1 [Example 118, N-[(3R)-1-azabicyclo[2.2.2]oct-3-yl]-5-(2-methoxyphenyl)-furan-2-carboxamide 4-methylbenzenesulfonate] | 45 to 69 nM | 
26 | O=C(N[C@H]1CN2CCC1CC2)c1ncc(-c2ccccc2Cl)o1 [Example 86, N-[(3R)-1-azabicyclo[2.2.2]oct-3-yl]-5-(2-chlorophenyl)-1,3-oxazole-2-carboxamide 4-methylbenzenesulfonate] | 30 to 40 nM | 
27 | O=C(N[C@H]1CN2CCC1CC2)c1ncc(-c2ccc(F)cc2)s1 [Example 95, N-[(3R)-1-azabicyclo[2.2.2]oct-3-yl]-5-(4-fluorophenyl)-1,3-thiazole-2-carboxamide 4-methylbenzenesulfonate] | 1080 nM | 
28 | COc1ccccc1-c1cnc(C(=O)N[C@H]2CN3CCC2CC3)s1 [Example 96, N-[(3R)-1-azabicyclo[2.2.2]oct-3-yl]-5-(2-methoxyphenyl)-1,3-thiazole-2-carboxamide 4-methylbenzenesulfonate] | 95 to 110 nM | 
29 | O=C(N[C@H]1CN2CCC1CC2)c1ccc(-c2ccccc2Cl)s1 [Example 4, N-[(3R)-1-azabicyclo[2.2.2]oct-3-yl]-5-(2-chlorophenyl)-thiophene-2-carboxamide hydrochloride] | 60 to 73 nM | 
30 | O=C(N[C@H]1CN2CCC1CC2)c1ccc(-c2ccccc2)s1 [Example 1, N-[(3R)-1-Azabicyclo[2.2.2]oct-3-yl]-5-phenyl-thiophene-2-carboxamide Hydrochloride] | 13 to 33 nM | 
31 | O=C(N[C@H]1CN2CCC1CC2)c1ccc(-c2cccc(C(F)(F)F)c2)o1 [Example 109, N-[(3R)-1-azabicyclo[2.2.2]oct-3-yl]-5-[3-(trifluoromethyl)-phenyl]-furan-2-carboxamide fumarate] | 1.5 to 6 nM | 
32 | O=C(N[C@H]1CN2CCC1CC2)c1ccc(-c2cccc(OC(F)(F)F)c2)o1 [Example 120, N-[(3R)-1-azabicyclo[2.2.2]oct-3-yl]-5-[3-(trifluoromethoxy)phenyl]-furan-2-carboxamide 4-methylbenzenesulfonate] | 1050 nM | 
33 | O=C(N[C@H]1CN2CCC1CC2)c1ccc(Sc2ccc(F)c(Cl)c2)s1 [Example 36, N-[(3R)-1-azabicyclo[2.2.2]oct-3-yl]-5-(3-chloro-4-fluorophenylsulfanyl)-thiophene-2-carboxamide] |  | 110 to 115
34 | O=C(N[C@H]1CN2CCC1CC2)c1ncc(-c2cccc([N+](=O)[O-])c2)s1 [Example 92, N-[(3R)-1-azabicyclo[2.2.2]oct-3-yl]-5-(3-nitrophenyl)-1,3-thiazole-2-carboxamide 4-medhylbenzenesulfonate] | 190 to 375 nM | 
35 | O=C(N[C@H]1CN2CCC1CC2)c1ccc(Sc2cccc(Cl)c2)s1 [Example 35, N-[(3R)-1-azabicyclo[2.2.2]oct-3-yl]-5-(3-chlorophenyl-sulfanyl)-thiophene-2-carboxamide] | 30 to 50 nM | 
36 | O=C(N[C@H]1CN2CCC1CC2)c1nc(-c2ccccc2)no1 [Example 154, N-[(3R)-1-azabicyclo[2.2.2]oct-3-yl]-3-phenyl-1,2,4-oxadiazole-5-carboxamide 4-methylbenzenesulfonate] | > 1000 nM | 
37 | O=C(N[C@H]1CN2CCC1CC2)c1ccc(-c2ccc(F)c(F)c2)o1 [Example 132, N-[(3R)-1-azabicyclo[2.2.2]oct-3-yl]-5-(3,4-difluorophenyl)-furan-2-carboxamide hydrochloride] | 875 to 2080 nM | 
38 | O=C(N[C@H]1CN2CCC1CC2)c1ccc(C#Cc2ccccc2)o1 [Example 150, N-[(3R)-1-Azabicyclo[2.2.2]oct-3-yl]-5-(phenylethynyl)-furan-2-carboxamide 4-Methylbenzenesulfonate] | 290 to 330 nM | 
